# Results as given in the METLIN SMRT retention time set (Domingo-Almenara et al. 2019).
# Assay: gradient 5% acetonitrile 3 min, to 50% in 2 min, to 85% in 15 min, held 3 min, 100 µL/min
# Details: column: Zorbax Extend-C18 2.1 x 50 mm; eluents: water / acetonitrile, 0.1% formic acid
# How it was run: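 Pure standards were run in mixtures of ~100 molecules by HPLC coupled to a quadrupole time-of-flight mass spectrometer. The column was a Zorbax Extend-C18 (2.1 × 50 mm, 1.8 μm) at 100 μL/min, with water and acetonitrile each containing 0.1% formic acid, in positive and negative ionization mode. Dead and dwell volumes were 40 μL and 900 μL. Retention time was taken from computationally picked adduct peaks, each manually inspected, with data collected over 3 months.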
row,Structure (SMILES),RP-LC retention time [s]
1,Cc1cccc(CNC(=O)C2CCCN(S(=O)(=O)c3cc(-c4noc(C)n4)cs3)C2)c1 (stereo not given),1010
2,O=C(CCc1nnn2c1CN(C(=O)Cc1c[nH]c3ccccc13)CC2)N1CCCC1,641
3,CC(NC(=O)Cn1c(=O)c(=O)n(C)c2ncccc21)c1ccccc1 (stereo not given),677
4,CCOC(=O)Cc1ccc(NC(=O)NC2CCN(c3cc(C)cc(C)c3)C2=O)cc1 (stereo not given),888
5,O=S(=O)(c1ccc2c(c1)CCCC2)N1CCCn2nc(-c3cccnc3)cc2C1,781
6,Cc1cccc(N2CCN(S(=O)(=O)c3ccc(-c4nnc(C5CCC5)o4)o3)CC2)c1,1140
7,CCn1ccc2c(cc(C(=O)Nc3ccc(F)cc3)n2C)c1=O,754
8,CN1c2ccc(F)cc2C(=O)NC12CCN(C(=O)c1ccccc1)CC2,726
9,CC1=C(c2ccc(Cl)cc2)S(=O)(=O)N=C1N1CCCN(C(=O)CC(C)C)CC1,875
10,CC(NC(=O)c1ccco1)c1nc(-c2ccc(-c3csc(-c4ccccc4)n3)cc2)no1 (stereo not given),1200
11,O=C(CC1CCN(S(=O)(=O)c2ccc(Cl)s2)CC1)NCCc1c[nH]c2ccccc12,945
12,O=C(Cn1nc2n(c1=O)CCCCC2)NCc1ccc(F)cc1,671
13,Cc1nc2cc(-c3noc(-c4ccccc4)n3)ccc2o1,1050
14,Cc1ccc(NS(=O)(=O)c2cc3c(s2)CCN(C(=O)C2CCC2)C3)cc1F,911
15,COCCN1C(=O)CCc2cc(NS(=O)(=O)c3ccc(Cl)s3)ccc21,793
16,CCCN1C(=O)COc2ccc(-c3noc(-c4cccc(NC(=O)c5ccco5)c4)n3)cc21,1100
17,Cc1n[nH]c(C)c1S(=O)(=O)N1CCC(c2nnc(C3CC3)s2)CC1,623
18,O=c1ccc(-c2ccc(Cl)cc2)nn1CCCNS(=O)(=O)Cc1ccccc1,579
19,CC(NC(=O)c1cn(C)c2ncccc12)c1ccccn1 (stereo not given),552
20,Cc1c(Cl)cccc1NC(=O)c1cccc([N+](=O)[O-])c1O,975
21,CN(C)c1cccc(C(=O)Nc2cc(-c3ccccn3)no2)c1,776
22,CC(C)c1nc2c(N)cccn2n1,613
23,O=C(Cc1cccc(F)c1)N1CCC(n2cnnc2-c2ccccc2)C1 (stereo not given),686

row,Structure (SMILES),RP-LC retention time [s]
1,Cc1cnc(C2CCC2)n1CCNC(=O)c1nccn1C,556
2,CC(C)OCCCNCc1ccc2c(c1)n(C)c(=O)n2C,592
3,c1ccc(OCc2nc(-c3ccc4c(c3)ncn4CCN3CCCCC3)no2)cc1,652
4,O=C(C1CCCC1)N1CCn2c(nnc2-c2ccccc2)C1,689
5,Cc1cn2c(CCC(=O)NCCOc3ccc(F)cc3)csc2n1,566
6,O=[N+]([O-])c1ccc(NN=C(c2ccccc2)c2ccccc2)nc1,1300
7,Cc1cc(C)cc(Oc2nccn3c(=O)n(CC(=O)Nc4cccc(C(C)C)c4)nc23)c1,1080
8,COc1ccc(S(=O)(=O)N2CC3CN(C(=O)Cc4cccc(F)c4)CC(C2)O3)cc1,825
9,CCOC(=O)c1[nH]c(C)c(CN(Cc2ccco2)C(=O)c2ccco2)c1C,902
10,COc1ccc(NC(=O)c2noc3c2CCCC3)c(OC)c1,1170
11,CC(=O)Nc1ccc(-n2cnc(C(=O)NC(C)c3ccc(F)cc3)c2)nc1 (stereo not given),701
12,CC(=O)Nc1ccc(C(=O)NC2CCN(c3cc(-c4cccs4)[nH]n3)C2)cc1 (stereo not given),641
13,Cc1cnc(CC2CCN(C(=O)C(C)C)C2)n1C(C)C (stereo not given),578
14,CCOc1ccc(Nc2c(-c3ccc(SC)cc3)nc3cnccn23)cc1,994
15,COc1ccc(NC(=O)CCOc2ccccc2)cc1,763
16,CCCN1C(=O)COc2ccc(-c3noc(C4CC(=O)N(c5ccccc5)C4)n3)cc21 (stereo not given),948
17,COC(=O)c1ccc2nc(NC(=O)c3ccccc3S(C)(=O)=O)sc2c1,744
18,O=C(Nc1ccc2scnc2c1)c1ccc(Cl)cc1Cl,801
19,O=C(NCc1ccccc1F)c1cn(-c2ccc(-c3nc(C4CC4)no3)cn2)cn1,929
20,COc1ccc(-c2nnc3n2CCN(Cc2ccccc2C#N)C3)cc1,668
21,O=C(C1CC(=O)N(c2n[nH]c3cccc(F)c23)C1)N1CCN(c2ccc(Cl)cc2)CC1 (stereo not given),817
22,CCOC(=O)c1cnc(N2CCN(c3ccc(F)cc3)CC2)c2ccccc12,1270
23,CN1CCN(CCCNC(=O)c2ccc3c(c2)N(C)C(=O)C2CCCCN32)CC1 (stereo not given),575

row,Structure (SMILES),RP-LC retention time [s]
1,CN(CC1CCOCC1)C(=O)Cc1ccc(F)cc1,687
2,Clc1cccc(CSc2ncnc3nc[nH]c23)c1,765
3,Cc1nc(-c2ccc3c(c2)CCN3C(=O)c2cccs2)cs1,953
4,Cc1ccccc1Cc1nc(-c2ccc3c(c2)nnn3CCN2CCOCC2)no1,692
5,CCSc1nc(-c2ccccc2)c(NC(=O)c2ccc(S(=O)(=O)N(C)C)cc2)s1,1000
6,Clc1cccc(-c2noc(Cc3nnc(-c4ccccc4)o3)n2)c1,1070
7,CC(C)C(=O)Nc1cc(-c2ccccc2)nn(C(C)C(=O)Nc2ccccc2Cl)c1=O (stereo not given),1170
8,O=C(C1CCN(c2nc3ccc(-c4ccsc4)nc3s2)CC1)N1CCOCC1,826
9,CCCCCC[C@H]1C(=O)O[C@H](C)[C@H](NC(=O)c2cccc(NC=O)c2O)C(=O)O[C@@H](C)[C@@H]1OC(=O)CC(C)C,1100
10,Cc1cc(C)n(-c2ccnc(N3CCN(C(C)C)CC3)n2)n1,610
11,O=C(Nc1c(F)cccc1F)N1CC(c2nc(C3CC3)no2)C1,670
12,CCOC(=O)Cc1ccc(NC(=O)N2CCN(c3ccc(=O)n(-c4ccc(F)cc4)n3)CC2)cc1,789
13,CCC(=O)Nc1ccc(CCc2nc3ccc(C(=O)NCCCOC)cc3[nH]2)cc1,596
14,CCCCN(CCCNC(=O)c1cc(C)nn1-c1ccccc1)Cc1ccccc1,656
15,CSc1ccc(-c2noc(CN3C(=O)COc4cc(Cl)ccc43)n2)cc1,1170
16,O=C(Cc1cccc(C(F)(F)F)c1)Nc1cccn2ncnc12,837
17,CCOC(=O)c1ccc(NC(=O)CN2CC(c3nc(-c4cccc(Cl)c4)no3)C2)cc1,650
18,O=C(CC(=O)Nc1ccc2nc3n(c(=O)c2c1)CCCCC3)Nc1ccc(F)cc1,705
19,CN1C(=O)CC[C@]2(C(=O)NCc3cc(F)ccc3F)CCCC[C@@H]12,575
20,CCn1cc(S(=O)(=O)NC2CCCC2)c2cccnc21,808
21,CCCN(CC1CCOC1)S(=O)(=O)c1cccc(C)c1 (stereo not given),931
22,CCn1cc(-c2ccc(Cl)cc2)cc1C(=O)NCc1cccnc1,738
23,O=C(/C=C/c1cccnc1)/C=C/c1cccnc1,635

row,Structure (SMILES),RP-LC retention time [s]
1,CN1CCCn2nc(C3CCN(C(=O)c4cccc(C(F)(F)F)c4)CC3)cc2C1=O,718
2,CNC(=O)[C@@H]1CN(S(=O)(=O)c2cnc[nH]2)C[C@H]1c1n[nH]c(C)n1,530
3,Cc1cccc(S(=O)(=O)N2CCC(n3cnnc3C(C)C)CC2)c1,735
4,CC(C)NC(=O)CN1C(=O)CSc2ccc(C(=O)N3CCCCC3)cc21,673
5,Cc1cc(N2CCCC2)n2nc(CN3CCN(c4ccc(F)cc4)CC3)nc2n1,634
6,CC(C)Cc1nc(N2CCN(C(=O)c3ccc([N+](=O)[O-])cc3)CC2)c(C#N)c2c1COC(C)(C)C2,1220
7,Cc1ncoc1C(=O)N1CCOc2ccc(NC(=O)C3CC3)cc2C1,659
8,CCCNC(=O)Cn1c(CC)nc2c(c1=O)CN(Cc1ccccc1)CC2,589
9,CN(C)C(=O)c1cc2c(s1)CCC(C(=O)Nc1ccc3c(c1)OCO3)C2 (stereo not given),698
10,O=C(NCCCN1CCCCC1)C1CCCN(c2ncc(-c3ccc(F)cc3)cn2)C1 (stereo not given),684
11,Cc1nc2ccccc2c(=O)n1Cc1noc(C(=O)NCCC2=CCCCC2)n1,915
12,O=C(C1CC1)N1CCc2sc(S(=O)(=O)Nc3cccc(F)c3)cc2C1,829
13,COc1cc(C)c(C)cc1S(=O)(=O)N1CCN(c2ccc(-c3cccnc3)nn2)CC1,649
14,Cc1nc(C(=O)Nc2ccccc2)c(C)n1C1CCN(S(C)(=O)=O)CC1,648
15,CCc1ccc(CNC(=O)C2=C3CCCN3c3ccc(F)cc3S2(=O)=O)cc1,996
16,Cc1ccc(NC(=O)Cn2c(-c3cnccn3)nc(C)c(C)c2=O)cc1F,793
17,CCN1C(=O)CCc2cc(NC(=O)Cc3cccc(OC)c3)ccc21,757
18,COCCO[C@H]1C(=O)N(C2CCN(S(=O)(=O)c3cccnc3)CC2)[C@H]1c1ccncc1,583
19,Cc1ccoc1C(=O)N1C[C@@H](CO)[C@H](c2nc(C3CC3)no2)C1,688
20,COc1ccc(CNC(=O)c2cccc(N3CCNC(c4ccccc4)C3)n2)cc1 (stereo not given),634
21,Cc1nc(-n2cccc2)sc1C(=O)NCc1cc(-c2cccs2)on1,894
